Assay [1] concerns the target Estrogen receptor beta (Homo sapiens, UniProt Q92731).
Description: Binding potency for human ER beta
For assay [2], the target named is T1, Estrogen receptor (Homo sapiens, UniProt P03372).
T1 sequence (P03372 whole entry): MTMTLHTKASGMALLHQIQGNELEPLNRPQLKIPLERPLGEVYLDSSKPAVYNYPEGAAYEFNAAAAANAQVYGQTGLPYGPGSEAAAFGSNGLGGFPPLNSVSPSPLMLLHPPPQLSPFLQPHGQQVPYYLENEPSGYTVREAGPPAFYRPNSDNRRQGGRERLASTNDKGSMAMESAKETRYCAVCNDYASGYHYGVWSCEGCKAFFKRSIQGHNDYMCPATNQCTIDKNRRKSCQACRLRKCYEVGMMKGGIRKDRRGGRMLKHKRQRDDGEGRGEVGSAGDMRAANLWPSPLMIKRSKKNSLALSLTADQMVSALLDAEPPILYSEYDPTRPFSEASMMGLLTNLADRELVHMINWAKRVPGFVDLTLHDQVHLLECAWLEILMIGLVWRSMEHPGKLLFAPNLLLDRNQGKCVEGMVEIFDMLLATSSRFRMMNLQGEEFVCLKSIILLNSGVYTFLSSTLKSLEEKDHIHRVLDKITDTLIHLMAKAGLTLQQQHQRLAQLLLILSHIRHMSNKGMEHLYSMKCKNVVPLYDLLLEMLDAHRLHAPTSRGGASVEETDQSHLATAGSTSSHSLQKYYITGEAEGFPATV
Description: Binding potency for human ER alpha

Assay [3] deals with MCF7. The experiment in a line: cells. The following applies: Homo sapiens.

Experimental findings from ChEMBL document CHEMBL1137846, “Estrogen receptor ligands. Part 7: Dihydrobenzoxathiin SERAMs with bicyclic amine side chains” (Bioorg Med Chem Lett, 2004) are described below.

Sequence of Estrogen receptor beta (Q92731 whole entry): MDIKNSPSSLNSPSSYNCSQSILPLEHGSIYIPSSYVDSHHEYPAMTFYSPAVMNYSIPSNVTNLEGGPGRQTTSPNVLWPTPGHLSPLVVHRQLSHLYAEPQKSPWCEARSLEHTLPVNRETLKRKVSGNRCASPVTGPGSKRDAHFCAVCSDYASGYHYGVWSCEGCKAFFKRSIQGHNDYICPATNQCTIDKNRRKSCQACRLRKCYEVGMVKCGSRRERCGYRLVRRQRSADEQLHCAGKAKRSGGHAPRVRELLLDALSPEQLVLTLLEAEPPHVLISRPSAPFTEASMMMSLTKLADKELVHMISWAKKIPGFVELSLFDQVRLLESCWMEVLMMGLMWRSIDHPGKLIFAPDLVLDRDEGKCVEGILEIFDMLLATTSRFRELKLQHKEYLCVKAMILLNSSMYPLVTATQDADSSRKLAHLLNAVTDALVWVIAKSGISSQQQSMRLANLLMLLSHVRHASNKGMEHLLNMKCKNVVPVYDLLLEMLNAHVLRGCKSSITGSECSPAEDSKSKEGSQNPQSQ

As to `Oc1ccc([C@H]2Sc3cc(O)ccc3O[C@H]2c2ccc(OCCN3CCC4(CCCC4)CC3)cc2)cc1`, the results for the IC50 in assay [1], in assay [2] and in assay [3] were 39 nM, 1.2 nM and 29.8 nM, respectively.

For `Oc1ccc([C@H]2Sc3cc(O)ccc3O[C@H]2c2ccc(OCCN3C[C@H]4CCC[C@H]4C3)cc2)cc1`, the IC50 is 18 nM in assay [1], 0.3 nM in assay [2] and 1.3 nM in assay [3].

Consider `Oc1ccc([C@H]2Sc3cc(O)ccc3O[C@H]2c2ccc(OCCN3CC[C@H]4C[C@H]43)cc2)cc1`, for which the figures for the IC50 in assay [1] and in assay [3] were 33 nM and 0.4 nM, respectively.

Take `Oc1ccc([C@H]2Sc3cc(O)ccc3O[C@H]2c2ccc(OCCN3CC4CC3CO4)cc2)cc1` (some centres not stated): the IC50 in assay [1] is 73 nM; in assay [2], 0.7 nM; in assay [3] it was 3.3 nM.

Regarding `Oc1ccc([C@H]2Sc3cc(O)ccc3O[C@H]2c2ccc(OCCN3CC4CCC4C3)cc2)cc1` (some centres not stated), the concentration for half-maximal inhibition (IC50) in assay [1] came to 85 nM; in assay [2] it was 0.8 nM; in assay [3], 2.5 nM.

As for `Oc1ccc([C@H]2Sc3cc(O)ccc3O[C@H]2c2ccc(OCCN3C4CCCC3CC4)cc2)cc1`, the figures for the IC50 in assay [1], in assay [2] and in assay [3] were 51 nM, 0.6 nM and 2.2 nM, respectively.

Take `Oc1ccc([C@H]2Sc3cc(O)ccc3O[C@H]2c2ccc(OCCN3C[C@H]4CCCC[C@H]4C3)cc2)cc1`: the IC50 turned out to be 33 nM in assay [1], 1 nM in assay [2] and 7.7 nM in assay [3].

On to `Oc1ccc([C@H]2Sc3cc(O)ccc3O[C@H]2c2ccc(OCCN3CC4CCC3CC4)cc2)cc1`, for which the IC50 in assay [1] is 52 nM; in assay [2], 1.3 nM; in assay [3], 1.6 nM.

For the compound `Oc1ccc([C@H]2Sc3cc(O)ccc3O[C@H]2c2ccc(OCCN3C4CCCC3CCC4)cc2)cc1`, the figures for the IC50 in assay [1], in assay [2] and in assay [3] were 47 nM, 0.6 nM and 3 nM, respectively.

With `Oc1ccc([C@H]2Sc3cc(O)ccc3O[C@H]2c2ccc(OCCN3CC4(CCC4)C3)cc2)cc1`, the half-maximal inhibitory concentration (IC50) was found to be 26 nM in assay [1], 0.4 nM in assay [2] and 0.3 nM in assay [3].

Turning to `Oc1ccc([C@H]2Sc3cc(O)ccc3O[C@H]2c2ccc(OCCN3CC[C@@H]4CC43)cc2)cc1` (single isomer, unassigned), the IC50 was 56 nM in assay [1] and 0.5 nM in assay [3].

For the compound `Oc1ccc([C@H]2Sc3cc(O)ccc3O[C@H]2c2ccc(OCCN3C4CCC3CC4)cc2)cc1`, the results for the IC50 in assay [1], in assay [2] and in assay [3] were 118 nM, 0.9 nM and 3.6 nM, respectively.

On to `Oc1ccc([C@H]2Sc3cc(O)ccc3O[C@H]2c2ccc(OCCN3CC4CC5CC(C4)CC3C5)cc2)cc1`, for which the IC50 was 40 nM in assay [1], 0.6 nM in assay [2] and 5.8 nM in assay [3].

Broadly, the IC50 is the midpoint of a concentration-inhibition curve. Low values mean higher potency, high ones lower potency.
